Source: patent publication US20240083857A1, “2-Methyl-Quinazolines” (Bayer Pharma Aktiengesellschaft, priority 2017, published 2024)
Like-named read-outs stand apart in the source and are kept apart here.

What was measured:
[1] = target: Epidermal Growth Factor Receptor (EGFR) (Homo sapiens (Human), UniProt P00533); assay: EGFR kinase assay (TR-FRET); format: biochemical
Excerpt: EGFR inhibitory activity of compounds of the present invention was quantified employing the TR-FRET based EGFR assay as described in the following paragraphs.
Epidermal Growth Factor Receptor (EGFR) affinity purified from human carcinoma A431 cells (Sigma-Aldrich, #E3641) was used as kinase. As substrate for the kinase reaction the biotinylated peptide biotin-Ahx-[…] (SEQ ID NO 5) (C-terminus in amid form) was used which can be purchased e.g. form the company Biosyntan GmbH (Berlin-Buch, Germany).
For the assay 50 nL of a 100 fold concentrated solution of the test compound in DMSO was pipetted into a black low volume 384 well microtiter plate (Greiner Bio-One, Frickenhausen, Germany), 2 μL of a solution of EGFR in aqueous assay buffer [50 mM Hepes/HCl pH 7.0, 1 mM MgCl2, 5 mM MnCl2, 0.5 mM activated sodium ortho-vanadate, 0.005% (v/v) Tween-20]were added and the mixture was incubated for 15 min at 22° C. to allow pre-binding of the test compounds to the enzyme before the start of the kinase reaction. […] The concentration of EGFR was adjusted depending of the activity of the enzyme lot and was chosen appropriate to have the assay in the linear range, typical concentration were about 3 U/ml. The reaction was stopped by the addition of 5 μl of a solution of HTRF detection reagents (0.1 μM streptavidine-XL665 [Cis Biointernational] and 1 nM PT66-Tb-Cryptate, an terbium-cryptate labelled anti-phospho-tyrosine antibody from Cis Biointernational [instead of the PT66-Tb-cryptate PT66-Eu-Chelate from Perkin Elmer can also be used]) in an aqueous EDTA-solution (80 mM EDTA, 0.2% (w/v) bovine serum albumin in 50 mM HEPES pH 7.5).
The resulting mixture was incubated 1 h at 22° C. to allow the binding of the biotinylated phosphorylated peptide to the streptavidine-XL665 and the PT66-Eu-Chelate. Subsequently the amount of phosphorylated substrate was evaluated by measurement of the resonance energy transfer from the PT66-Tb-Cryptate to the streptavidine-XL665. Therefore, the fluorescence emissions at 620 nm and 665 nm after excitation at 337 nm were measured in a HTRF reader, e.g. a Pherastar (BMG Labtechnologies, Offenburg, Germany) or a Viewlux (Perkin-Elmer). The ratio of the emissions at 665 nm and at […] was taken as the measure for the amount of phosphorylated substrate.

[2] = target: human SOS1 (nucleotide exchange of K-Ras^G12C) (Homo sapiens, UniProt Q07889); assay: Biochemical assay 2: K-Ras^G12C activation assay by hSOS1 at high GTP concentration (HTRF)
[3] = target: K-Ras^G12C : hSOS1 interaction (Homo sapiens, UniProt Q07889); assay: Biochemical assay 1: K-Ras^G12C interaction assay with hSOS1 (HTRF); format: binding
[4] = target: human SOS1 (loading of human K-Ras^G12C-GDP with fluorescent GTP-analog) (Homo sapiens, UniProt Q07889); assay: Biochemical assay 3: K-Ras^G12C activation assay by hSOS1 (HTRF)
[5] = values given in μM, read-out: EGFR kinase inhibition IC50
[6] = high GTP, read-out: Assay 2 (KRAS-Activation by SOS high GTP) activity expressed as IC50
[7] = read-out: Assay 1 (KRAS-SOS Interaction) activity expressed as IC50
[8] = no GTP, read-out: Assay 3 (KRAS-Activation by SOS no GTP) activity expressed as IC50
[9] = in μM, read-out: EGFR-assay IC50
[10] = E-notation values, unit inferred, 50 μM GTP, read-out: Assay 2 (KRAS-Activation, high GTP) IC50
[11] = E-notation values, unit inferred, read-out: Assay 1 (KRAS-SOS interaction) IC50
[12] = E-notation values, unit inferred, read-out: Assay 3 (KRAS-Activation) IC50
[13] = E-notation values, unit inferred, read-out: EGFR-assay IC50

Chain of Epidermal Growth Factor Receptor (EGFR) (P00533 25-1210): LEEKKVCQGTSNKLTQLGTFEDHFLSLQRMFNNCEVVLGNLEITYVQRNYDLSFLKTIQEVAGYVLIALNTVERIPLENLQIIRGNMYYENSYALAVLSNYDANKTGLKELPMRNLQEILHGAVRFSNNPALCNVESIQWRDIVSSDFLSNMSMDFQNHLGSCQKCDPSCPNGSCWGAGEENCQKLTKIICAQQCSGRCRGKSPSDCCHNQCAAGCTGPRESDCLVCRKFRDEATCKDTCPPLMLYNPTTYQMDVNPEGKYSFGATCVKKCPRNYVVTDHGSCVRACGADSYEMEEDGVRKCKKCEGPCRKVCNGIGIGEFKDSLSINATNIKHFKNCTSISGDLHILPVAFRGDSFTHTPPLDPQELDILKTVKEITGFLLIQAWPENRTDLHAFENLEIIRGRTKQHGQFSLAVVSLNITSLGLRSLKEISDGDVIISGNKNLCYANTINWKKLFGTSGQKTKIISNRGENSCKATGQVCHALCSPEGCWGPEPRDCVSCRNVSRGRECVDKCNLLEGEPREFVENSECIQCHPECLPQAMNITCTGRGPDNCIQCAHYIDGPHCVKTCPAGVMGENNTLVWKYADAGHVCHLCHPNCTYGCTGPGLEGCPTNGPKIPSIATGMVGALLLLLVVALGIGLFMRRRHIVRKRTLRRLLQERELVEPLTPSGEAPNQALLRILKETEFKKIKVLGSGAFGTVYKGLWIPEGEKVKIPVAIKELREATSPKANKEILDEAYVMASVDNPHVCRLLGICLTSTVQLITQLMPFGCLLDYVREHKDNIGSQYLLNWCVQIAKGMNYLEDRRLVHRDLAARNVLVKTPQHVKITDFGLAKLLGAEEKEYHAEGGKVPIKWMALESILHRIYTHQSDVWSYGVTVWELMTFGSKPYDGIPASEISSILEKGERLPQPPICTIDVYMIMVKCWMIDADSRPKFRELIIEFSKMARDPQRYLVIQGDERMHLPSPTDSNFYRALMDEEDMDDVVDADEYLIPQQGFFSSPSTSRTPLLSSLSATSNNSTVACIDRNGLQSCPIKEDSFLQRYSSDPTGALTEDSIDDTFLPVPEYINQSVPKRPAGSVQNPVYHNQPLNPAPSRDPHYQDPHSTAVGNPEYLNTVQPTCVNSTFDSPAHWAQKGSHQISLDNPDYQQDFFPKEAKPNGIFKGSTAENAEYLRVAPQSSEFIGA

**Q.** Which IC50 [1, 5] does the source give for `CNCc1ccccc1-c1csc(C(C)Nc2nc(C)nc3cc(OC)c(OC)cc23)c1` (single isomer, unassigned; enantiomer 1) [Example 326, 6,7-dimethoxy-2-methyl-N-[1-(4-{2-[(methylamino)methyl]phenyl}thiophen-2-yl)ethyl]quinazolin-4-amine, Enantiomer 1] here?
**A.** > 20 µM

**Q.** `CNCc1ccccc1-c1csc(C(C)Nc2nc(C)nc3cc(OC)c(OC)cc23)c1` (single isomer, unassigned; enantiomer 2) [Example 327, 6,7-dimethoxy-2-methyl-N-[1-(4-{2-[(methylamino)methyl]phenyl}thiophen-2-yl)ethyl]quinazolin-4-amine, Enantiomer 2] was tested. Which IC50 [1, 5] did it give?
**A.** > 20 µM

**Q.** `COc1cc2nc(C)nc(N[C@H](C)c3cccc4ccccc34)c2cc1OC` [Example 1, 6,7-dimethoxy-2-methyl-N-[(1R)-1-(naphthalen-1-yl)ethyl]quinazolin-4-amine] was tested. Which IC50 [1, 5] did it give?
**A.** > 20 µM

**Q.** For `CNCc1ccccc1-c1csc(C(C)Nc2nc(C)nc3cc(OC)c(OC)cc23)c1` (centres unmarked) [Example 271, 6,7-dimethoxy-2-methyl-N-[1-(4-{2-[(methylamino)methyl]phenyl}thiophen-2-yl)ethyl]quinazolin-4-amine], which IC50 [1, 5] is on record?
**A.** > 20 µM

**Q.** With `COc1cc2nc(C)nc(NC(C)c3ccc(-c4ccccc4CNCC(N)=O)s3)c2cc1OC` (centres unmarked) [Example 279, 2-[2-(5-{1-[(6,7-dimethoxy-2-methylquinazolin-4-yl)amino]ethyl}thiophen-2-yl)-benzyl]glycinamide] as the compound, how does the IC50 [2, 6] read?
**A.** 168 nM

**Q.** What about the IC50 [3, 7] of the same compound?
**A.** 176 nM

**Q.** And the IC50 [4, 8]?
**A.** 160 nM

**Q.** With `COc1cc2nc(C)nc(NC(C)c3ccc(-c4ccccc4CNCC(=O)N(C)C)s3)c2cc1OC` (centres unmarked) [Example 280, 2-[2-(5-{1-[(6,7-dimethoxy-2-methylquinazolin-4-yl)amino]ethyl}thiophen-2-yl)benzyl]-N,N-dimethylglycinamide] as the compound, how does the IC50 [2, 6] read?
**A.** 120 nM

**Q.** What about the IC50 [3, 7] of the same compound?
**A.** 148 nM

**Q.** What about the IC50 [4, 8] of the same compound?
**A.** 135 nM

**Q.** For `CNC(=O)CNCc1ccccc1-c1ccc(C(C)Nc2nc(C)nc3cc(OC)c(OC)cc23)s1` (centres unmarked) [Example 282, 2-[2-(5-{1-[(6,7-dimethoxy-2-methylquinazolin-4-yl)amino]ethyl}thiophen-2-yl)benzyl]-N-methylglycinamide], which IC50 [2, 6] is on record?
**A.** 265 nM

**Q.** What about the IC50 [3, 7] of the same compound?
**A.** 257 nM

**Q.** And the IC50 [4, 8]?
**A.** 212 nM

**Q.** `COCCNC(=O)CNCc1ccccc1-c1ccc(C(C)Nc2nc(C)nc3cc(OC)c(OC)cc23)s1` (centres unmarked) [Example 283, 2-[2-(5-{1-[(6,7-dimethoxy-2-methylquinazolin-4-yl)amino]ethyl}thiophen-2-yl)benzyl]-N-(2-methoxyethyl)glycinamide] was tested. Which IC50 [2, 6] did it give?
**A.** 371 nM

**Q.** What about the IC50 [3, 7] of the same compound?
**A.** 418 nM

**Q.** And the IC50 [4, 8]?
**A.** 344 nM

**Q.** Which results are given for `COc1cc2nc(C)nc(NC(C)c3ccc(-c4ccccc4CNCC(=O)NCc4ccccc4)s3)c2cc1OC` (centres unmarked) [Example 284, N-benzyl-2-[2-(5-{1-[(6,7-dimethoxy-2-methylquinazolin-4-yl)amino]ethyl}thiophen-2-yl)benzyl]glycinamide]?
**A.** IC50 [2, 6]: 879 nM; IC50 [3, 7]: 1060 nM; IC50 [4, 8]: 889 nM

**Q.** Which IC50 [2, 6] does the source give for `COc1cc2nc(C)nc(NC(C)c3ccc(-c4ccccc4CNCC(=O)Nc4ccccc4)s3)c2cc1OC` (centres unmarked) [Example 289, 2-[2-(5-{1-[(6,7-dimethoxy-2-methylquinazolin-4-yl)amino]ethyl}thiophen-2-yl)benzyl]-N-phenylglycinamide] here?
**A.** 1180 nM

**Q.** What about the IC50 [3, 7] of the same compound?
**A.** 2110 nM

**Q.** And the IC50 [4, 8]?
**A.** 2730 nM

**Q.** Which results are given for `COc1cc2nc(C)nc(N[C@H](C)c3cccc(-c4c[nH]cn4)c3)c2cc1OC` [Example 342, N-{(1R)-1-[3-(1H-imidazol-4-yl)phenyl]ethyl}-6,7-dimethoxy-2-methylquinazolin-4-amine]?
**A.** IC50 [1, 5]: > 20 µM; IC50 [2, 6]: 993 nM; IC50 [4, 8]: 1130 nM

**Q.** Which results are given for `COc1cc2nc(C)nc(NC(C)c3cccs3)c2cc1OC` (centres unmarked) [Example 347, 6,7-dimethoxy-2-methyl-N-[1-(thiophen-2-yl)ethyl]quinazolin-4-amine]?
**A.** IC50 [2, 6]: 9050 nM; IC50 [3, 7]: 15600 nM; inhibition at 20 µM ([4]; read-out: Assay 3 (KRAS-Activation by SOS no GTP) activity expressed as % inhibition at 20 μM, no GTP, at 20 μM): 48%

**Q.** Which IC50 [1, 9] does the source give for `COc1cc2nc(C)nc(NC(C)c3ccc(-c4ccccc4-c4nnn[nH]4)s3)c2cc1OC` (centres unmarked) [Example 368, 6,7-dimethoxy-2-methyl-N-[1-{5-[2-(1H-tetrazol-5-yl)phenyl]thiophen-2-yl}ethyl]-quinazolin-4-amine] here?
**A.** > 20 µM

**Q.** For `Cc1nc(N[C@H](C)c2cccc(Cl)c2)c2cc(C(=O)O)ccc2n1` [Example 372, 4-{[(1R)-1-(3-chlorophenyl)ethyl]amino}-2-methylquinazoline-6-carboxylic acid], which IC50 [1, 9] is on record?
**A.** > 20 µM

**Q.** Which IC50 [1, 9] does the source give for `COc1cc2nc(C)nc(NC(C)c3ccc(-c4ccccc4C(O)CCc4ccccc4)s3)c2cc1OC` (centres unmarked) [Example 375, 1-[2-(5-{1-[(6,7-dimethoxy-2-methylquinazolin-4-yl)amino]ethyl}thiophen-2-yl)phenyl]-3-phenylpropan-1-ol] here?
**A.** > 20 µM

**Q.** Which results are given for `COc1cc2nc(C)nc(NC(C)c3ccc(-c4ccc(Br)cc4CN(C)C)s3)c2cc1OC` (centres unmarked) [Example 384, N-(1-(5-(4-bromo-2-((dimethylamino)methyl)phenyl)thiophen-2-yl)ethyl)-6,7-dimethoxy-2-methylquinazolin-4-amine]?
**A.** IC50 [2, 10]: 66.5 nM; IC50 [3, 11]: 123 nM; IC50 [4, 12]: 84.6 nM

**Q.** `COc1cc2nc(C)nc(NC(C)c3ccc(-c4ccc(C(F)(F)F)cc4CN(C)C)s3)c2cc1OC` (centres unmarked) [Example 385, N-(1-(5-(2-((dimethylamino)methyl)-4-(trifluoromethyl)phenyl)thiophen-2-yl)ethyl)-6,7-dimethoxy-2-methylquinazolin-4-amine] was tested. Which IC50 [2, 10] did it give?
**A.** 329 nM

**Q.** What about the IC50 [3, 11] of the same compound?
**A.** 732 nM

**Q.** What about the IC50 [4, 12] of the same compound?
**A.** 388 nM

**Q.** Which results are given for `COc1cc2nc(C)nc(NC(C)c3ccc(-c4ccc(C(F)(F)F)cc4C)s3)c2cc1OC` (centres unmarked) [Example 386, 6,7-di methoxy-2-methyl-N-(1-{5-[2-methyl-4-(trifluoromethyl)phenyl]-2-thienyl}ethyl)quinazolin-4-amine]?
**A.** IC50 [2, 10]: 3660 nM; IC50 [3, 11]: 8770 nM; IC50 [4, 12]: 10100 nM

**Q.** For `Cc1nc(NC(C)c2ccc(-c3ccccc3CN(C)C)s2)c2cc(N3CCCC3)ccc2n1` (centres unmarked) [Example 415, N-[1-(5-{2-[(dimethylamino)methyl]phenyl}thiophen-2-yl)ethyl]-2-methyl-6-(pyrrolidin-1-yl)quinazolin-4-amine], which IC50 [2, 10] is on record?
**A.** 88.5 nM

**Q.** What about the IC50 [3, 11] of the same compound?
**A.** 115 nM

**Q.** And the IC50 [4, 12]?
**A.** 94.2 nM

**Q.** Which results are given for `COc1cc2nc(C)nc(NC(C)c3csc(C)n3)c2cc1OC` (centres unmarked) [Example 444]?
**A.** IC50 [1, 13]: > 20 µM; IC50 [2, 10]: > 20000 nM; IC50 [4, 12]: > 20000 nM

**Q.** Which results are given for `COc1cc2nc(C)nc(NC(C)c3nc(C)cs3)c2cc1OC` (centres unmarked) [Example 445, 6,7-dimethoxy-2-methyl-N-[1-(4-methyl-1,3-thiazol-2-yl)ethyl]quinazolin-4-amine]?
**A.** IC50 [1, 13]: > 20 µM; IC50 [2, 10]: > 20000 nM; IC50 [4, 12]: > 20000 nM

**Q.** `COc1cc2nc(C)nc(NC(C)c3ccc(-c4cc(C(=O)O)n(C)n4)s3)c2cc1OC` (centres unmarked) [Example 446, 3-(5-{1-[(6,7-dimethoxy-2-methylquinazolin-4-yl)amino]ethyl}thiophen-2-yl)-1-methyl-1H-pyrazole-5-carboxylic acid] was tested. Which IC50 [1, 13] did it give?
**A.** > 20 µM

**Q.** And the IC50 [2, 10]?
**A.** > 20000 nM

**Q.** And the IC50 [4, 12]?
**A.** > 20000 nM

**Q.** How did the IC50 [1, 13] turn out when `COc1cc2nc(C)nc(NC(C)c3ccc(-c4ccc(CNC(=O)OC(C)(C)C)s4)s3)c2cc1OC` (centres unmarked) [Example 447, tert-butyl [(5′-{1-[(6,7-dimethoxy-2-methylquinazolin-4-yl)amino]ethyl}-2,2′-bithiophen-5-yl)methyl]carbamate] was run?
**A.** > 20 µM

**Q.** What about the IC50 [2, 10] of the same compound?
**A.** > 20000 nM

**Q.** And the IC50 [4, 12]?
**A.** > 20000 nM

**Q.** For `COc1cc2ncnc(N[C@H](C)c3cccc4ccccc34)c2cc1OC` [Reference compound, 6,7-dimethoxy-N-[(1R)-1-(1-naphthyl)ethyl]quinazolin-4-amine, reference compound], which IC50 ([1]; unit inferred, read-out: EGFR kinase inhibition IC50) is on record?
**A.** 0.553 µM
